As usually defined, the CC50 is the concentration giving 50% cytotoxicity. A low value points to greater toxicity to the cells. The term IC50 denotes the concentration that inhibits the measured activity by half.

Series [1] deals with MOLT-4 (T cell leukemia cell). Conditions: MOLT-4 cell density after 3 days of culture, read from FIG. 2.
Procedure: In order to evaluate cytotoxicity of the cyclic phenol sulfide (III) in a human cell line, MOLT-4 (T cell leukemia cell, Riken Gene Bank accession number RCB 0206), was used in the test. The cyclic phenol sulfide (III) was dissolved in a medium (RPMI-1640 containing 10% FCS (fetal calf serum), kanamycin (5,000 U/ml) and streptomycin (5 mg/ml)) to a concentration of 2.5 mM, and the solution was made into 2-fold serial dilutions to prepare cyclic phenol sulfide (III)-containing medium samples having 11 steps of concentration. Each of the cyclic phenol sulfide (III)-containing medium samples was dispensed into wells of a 6-well plate in 2.5 ml, a MOLT-4 culture broth of 2×10^5 cells/ml was dispensed into the resulting wells in 2.5 ml, the cells were cultured at 37° C. for 3 days in a moist incubator containing 5% CO2, and then the cell density was measured using Celltac MEK-5254 (manufactured by NIHON KOHDEN).

Procedure for HIV-1: The cyclic phenol sulfide (III) was dissolved in the medium used in Example 8 to a concentration of 2.5 mM, and the solution was made into 2-fold serial dilutions to prepare cyclic phenol sulfide (III)-containing medium samples having 11 steps of concentration. Each of the cyclic phenol sulfide (III)-containing medium samples was dispensed into wells of a 6-well plate in 2.5 ml, a culture broth containing 1.64×10^5 cells/ml of MOLT-4 or 1.82×10^4 cells/ml of HIV-1-infected MOLT-4 was dispensed into the resulting wells in 2.5 ml, the cells were cultured at 37° C. for 3 days in a moist incubator containing 5% CO2, the resulting cell density was measured using Celltac MEK-5254 (manufactured by NIHON KOHDEN), and then a portion of the medium containing 10^6 cells was taken out to purify DNA. The number of HIV-1 DNA contained in 500 ng of the cell DNA was determined by competitive nested PCR.
Firstly, 500 ng of each cell DNA sample was mixed with 1 μM of the primers JA9 and JA12, 0.2 mM dNTP, 50 mM KCl, 10 mM Tris-HCl (pH 8.3), 4 mM MgCl2, 5,000 copies of the competitor and 2 units of Taq DNA polymerase manufactured by Roche), and the total volume was adjusted to 100 μl with Milli-Q water. […]

`O=S(=O)([O-])c1cc2c(O)c(c1)Sc1cc(S(=O)(=O)[O-])cc(c1O)Sc1cc(S(=O)(=O)[O-])cc(c1O)Sc1cc(S(=O)(=O)[O-])cc(c1O)S2.[Na+].[Na+].[Na+].[Na+]` [cyclic phenol sulfide (III), sodium salt of 25,26,27,28-tetrahydroxy-2,8,14,20-tetrathia[19.3.1.1^3,71^9,131^15,19]octacosa-1(25),3,5,7(28),9,11,13(27),15,17,19(26),21,23-dodecaene-5,11,17,23-tetrasulfonic acid]: the CC50 in series [1] turned out to be 700 µM. Besides, in the series on HIV-1 (HIV-1 DNA concentration after 3 days of infection, MOLT-4 / HIV-1-infected MOLT-4 co-culture, read from FIG. 2), the IC50 came out at 40 µM. Moreover, the “therapeutic ratio (=CC50/IC50)” value with HIV-1 (from Example 8 and Example 9) is listed as 18.

The values are drawn from US6355671B1, “SULFONATED DERIVATIVES OF CYCLIC PHENOL SULFIDES, PROCESS FOR THE PREPARATION THEREOF, […] […] […] PHENOL SULFIDES, METHODS FOR […] RECOVERY […], AND DRUG COMPOSITIONS CONTAINING THE SULFIDES” (Cosmo Research Institute, priority 1997, dated 2002).
